This note sets out measurements from article PMC10108347, “Heterobifunctional Ligase Recruiters Enable pan-Degradation of Inhibitor of Apoptosis Proteins” (Journal of Medicinal Chemistry, 2023).

Where “and” joins values, the source holds several entries; their conditions need not be identical. Equal entries are not always repeated. Where two headings read alike, the source gives them in different places.

For assay [1], the system named is IAPs (cIAP1, cIAP2, XIAP). In words: Immunoblotting of IAPs in MM.1S cells, overall degradation profile, time course and washout. In kind it is cell-based. As to conditions: for IAP degradation profile (in words): 16 h, western blot, concentration (10 nM to 1 μM). As to the method: Next, we examined the persistence of IAP degradation in MM.1S cells after a single exposure to 1 μM of 9 and subsequent removal of the compound. […] The reliance on CRL2^VHL was assessed with a neddylation inhibitor MLN4924, which blocks the activity of CRLs (Figure S13A).
(In general: Immunoblotting shows a protein as a band on a membrane.)

The next assay deals with HEL. The experiment in a line: CellTiter-Glo cell viability assay, HEL. As to conditions: Homo sapiens. The format is cell-based. (In general: Cellular ATP, detected with luciferase, serves as a proxy for viable cell number.)
The test system of a further assay is K562. The experiment in a line: CellTiter-Glo cell viability assay, K562. In kind it is cell-based. As to conditions: Homo sapiens.
In the next assay the test system is MOLM13. The experiment in a line: CellTiter-Glo cell viability assay, MOLM13. The format is cell-based. As to conditions: Homo sapiens, MOLM-13.
The subject of a further assay is DB. In words: CellTiter-Glo cell viability assay, DB. The note with it: Homo sapiens. In kind it is cell-based.
A further assay concerns MM.1S cells proteome. The experiment in a line: diaPASEF quantitative proteomics in MM.1S cells: proteome-wide degradation selectivity (other proteins). The format is cell-based, human. As to conditions: for Precursor intensity (DIA-NN), CLPX precursor AAAAADLANR2: CLPX_HUMAN (O76031), ATP-dependent Clp protease ATP-binding subunit clpX-like, mitochondrial; for Precursor intensity (DIA-NN), CLPX precursor AAAAADLANR2 / Precursor intensity (DIA-NN), RPL4 precursor AAAAAAALQAK2 / Precursor intensity (DIA-NN), SAMD1 precursor AAAAAATAPPSPGPAQPGPR2 / Precursor intensity (DIA-NN), ZFP91 precursor AAAAAAAAAVSR2: precursor charge 2; for Precursor intensity (DIA-NN), CLPX precursor AAAAADLANR2 / Precursor intensity (DIA-NN), RPL4 precursor AAAAAAALQAK1 / Precursor intensity (DIA-NN), RPL4 precursor AAAAAAALQAK2 / Precursor intensity (DIA-NN), SAMD1 precursor AAAAAATAPPSPGPAQPGPR2 / Precursor intensity (DIA-NN), ZFP91 precursor AAAAAAAAAVSR2: per-replicate values (rep1, rep2); for Precursor intensity (DIA-NN), RPL4 precursor AAAAAAALQAK1 / Precursor intensity (DIA-NN), RPL4 precursor AAAAAAALQAK2: RL4_HUMAN (P36578), 60S ribosomal protein L4; for Precursor intensity (DIA-NN), RPL4 precursor AAAAAAALQAK1: precursor charge 1; for Precursor intensity (DIA-NN), SAMD1 precursor AAAAAATAPPSPGPAQPGPR2: SAMD1_HUMAN (Q6SPF0), Atherin; for Precursor intensity (DIA-NN), ZFP91 precursor AAAAAAAAAVSR2: ZFP91_HUMAN (Q96JP5), E3 ubiquitin-protein ligase ZFP91. Here is the method: To analyze the proteome-wide degradation selectivity of hetero-PROTACs 9, 25, and 27, a diaPASEF-based mass spectrometry approach was employed.[54] MM.1S cells were treated with 100 nM PROTACs for 3 h. […] Accordingly, global proteomic plots show the mathematically imputed levels of IAP proteins in treatment groups if the corresponding IAP was detected in the control treatment (see also Experimental Section).
MM1s cells were treated with DMSO or 0.1 μM of compound for 3 h. The cells were harvested by centrifugation and washed with phosphate-buffered saline before snap-freezing in liquid nitrogen. The cells were lysed by addition of lysis buffer (8 M urea, 50 mM NaCl, 50 mM 4-(2-hydroxyethyl)-1-piperazine-ethanesulfonic acid (EPPS) pH 8.5, protease, and phosphatase inhibitors) and homogenization by bead beating (BioSpec) for three repeats of 30 s at 2400. Bradford assay was used to determine the final protein concentration in the clarified cell lysate. 50 μg of protein for each sample was reduced, alkylated, and precipitated using methanol/chloroform as previously described,[64] and the resulting washed precipitated protein was allowed to air dry. The precipitated protein was resuspended in 4 M urea, 50 mM HEPES pH 7.4, followed by dilution to 1 M urea with the addition of 200 mM EPPS, pH 8. […] The LysC digestion was diluted to 0.5 M urea with 200 mM EPPS pH 8, followed by digestion with trypsin (1:50; enzyme/protein) for 6 h at 37 °C. Sample digests were acidified with formic acid to a pH of 2–3 prior to desalting using C18 solid-phase extraction plates (SOLA, Thermo Fisher Scientific). Desalted peptides were dried in a vacuum centrifuge and reconstituted in 0.1% formic acid for LC–MS analysis.
Data were collected using a TimsTOF Pro2 (Bruker Daltonics, Bremen, Germany) coupled to a nanoElute LC pump (Bruker Daltonics, Bremen, Germany) via a CaptiveSpray nanoelectrospray source. […] Peptides were separated using a 50 min gradient of 2–30% buffer B (acetonitrile in 0.1% formic acid) with a flow rate of 250 nL/min and column temperature maintained at 50 °C.
Data-Dependent Acquisition (DDA) was performed in the Parallel Accumulation-Serial Fragmentation (PASEF) mode to determine effective ion mobility windows for downstream diaPASEF data collection.[54] The diaPASEF parameters included 100% duty cycle using accumulation and ramp times of 50 ms each, 1 TIMS-MS scan, and 10 PASEF ramps per acquisition cycle. The TIMS-MS survey scan was acquired between 100–1700 m/z and 1/K0 of 0.7–1.3 V × s/cm^2. Precursors with 1–5 charges were selected, and those that reached an intensity threshold of 20,000 arbitrary units were actively excluded for 0.4 min. The quadrupole isolation width was set to 2 m/z for m/z < 700 and 3 m/z for m/z > 800, with the m/z between 700 and 800 m/z being interpolated linearly. […] To perform diaPASEF, the precursor distribution in the DDA m/z-ion mobility plane was used to design an acquisition scheme for DIA data collection, which included two windows in each 50 ms diaPASEF scan. Data was acquired using 16 of these 25 Da precursor double window scans (creating 32 windows), which covered the diagonal scan line for doubly and triply charged precursors, with singly charged precursors able to be excluded by their position in the m/z-ion mobility plane. These precursor isolation windows were defined between 400–1200 m/z and 1/K0 of 0.7–1.3 V × s/cm^2.
The diaPASEF raw file processing and controlling peptide and protein level false discovery rates, assembling proteins from peptides, and protein quantification from peptides were performed using library-free analysis in DIA-NN 1.8.[65] The library-free mode performs an in silico digestion of a given protein sequence database alongside deep learning-based predictions to extract the DIA precursor data into a collection of MS^2 spectra.

A further assay has as its target cIAP2 (Homo sapiens, UniProt Q13489). In words: Immunoblotting (western blot) quantification of cIAP2 levels in MM.1S cells. The note with it: for remaining activity at 0.1 µM: read-out: %remaining protein cIAP2, MM.1S cells, 16 h treatment at 0.1 μM, normalized to loading control and DMSO. Also noted: Dmax: dose or concentration left out as unconfirmed.
Where [2] appears, read: SI csv, head prints only the cell line, no quantity or unit, values parallel Table 1/S8, read-out: DB.
Setting [3] is: MM.1S cells, 0.1 μM, 3 h, log2 fold change compound vs CTRLs (limma).

Sequence of cIAP2 (Q13489 whole entry): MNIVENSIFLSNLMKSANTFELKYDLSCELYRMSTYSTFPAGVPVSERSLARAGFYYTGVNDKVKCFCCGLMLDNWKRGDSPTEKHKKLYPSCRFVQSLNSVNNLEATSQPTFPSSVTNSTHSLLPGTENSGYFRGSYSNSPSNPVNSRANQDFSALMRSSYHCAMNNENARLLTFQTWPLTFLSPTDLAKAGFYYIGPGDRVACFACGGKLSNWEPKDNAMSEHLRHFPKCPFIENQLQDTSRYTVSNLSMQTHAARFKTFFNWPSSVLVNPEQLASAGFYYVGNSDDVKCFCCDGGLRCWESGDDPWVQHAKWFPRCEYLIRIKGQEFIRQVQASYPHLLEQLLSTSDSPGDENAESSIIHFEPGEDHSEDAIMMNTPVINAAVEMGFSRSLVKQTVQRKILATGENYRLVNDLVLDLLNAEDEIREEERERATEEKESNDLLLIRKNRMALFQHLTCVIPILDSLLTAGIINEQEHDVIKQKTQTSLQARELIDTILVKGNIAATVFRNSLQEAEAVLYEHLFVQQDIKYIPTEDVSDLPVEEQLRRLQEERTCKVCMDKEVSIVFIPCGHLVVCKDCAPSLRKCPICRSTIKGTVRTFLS

Turning to `CN[C@@H](C)C(=O)N[C@@H](C(=O)N1CCC[C@H]1C(=O)N[C@@H]1c2ccccc2C[C@@H]1OCC#CC#CCO[C@H]1Cc2ccccc2[C@H]1NC(=O)[C@@H]1CCCN1C(=O)[C@H](NC(=O)[C@H](C)NC)C1CCCCC1)C1CCCCC1` [AZD5582, reference compound], the “IAP degradation profile (in words)” value in assay [1] is “potent cIAP autodegradation”. Also, in the assay on HEL (SI csv, head prints only the cell line, no quantity or unit, values parallel Table 1/S8, read-out: HEL), the IC50 stood at 0.064 µM. In addition, the IC50 with K562 (SI csv, head prints only the cell line, no quantity or unit, values parallel Table 1/S8, read-out: K562) amounted to 0.019 µM. In addition, in the assay with MOLM13 (SI csv, head prints only the cell line, no quantity or unit, values parallel Table 1/S8, read-out: MOLM13), the IC50 is 0.002 µM. In addition, the IC50 in the assay with DB (setting [2]) stood at 0.073 µM. For the same compound, in the assay on MM.1S cells proteome, the “Precursor intensity (DIA-NN), CLPX precursor AAAAADLANR2” value was 16915 and 25995.2; the “Precursor intensity (DIA-NN), RPL4 precursor AAAAAAALQAK1” value was 331.845; the “Precursor intensity (DIA-NN), RPL4 precursor AAAAAAALQAK2” value is 447305 and 464651; the “Precursor intensity (DIA-NN), SAMD1 precursor AAAAAATAPPSPGPAQPGPR2” value was 15006.1 and 13237.9. In addition, the “Precursor intensity (DIA-NN), ZFP91 precursor AAAAAAAAAVSR2” value in the assay with MM.1S cells proteome was 67729.2 and 74323. For the same compound, in the assay with MM.1S cells proteome (setting [3]), the “logFC ATP5MD” value is -0.4905, the “logFC CD44” value was -0.09493, the “logFC EDF1” value is -0.1747 and the “logFC GOT2” value was -0.1164. The “logFC RRP15” value in the assay with MM.1S cells proteome (setting [3]) is given as -0.3053. In addition, the “cIAP2 degradation (in words)” value at cIAP2 (MM.1S cells, 16 h, western blot, 0.1 or 1 μM) is “substantial degradation”.
Take `CN[C@@H](C)C(=O)N[C@H](C(=O)N1C[C@@H](Oc2cccc(OCCCCC(=O)N[C@H](C(=O)N3C[C@H](O)C[C@H]3C(=O)N[C@@H](C)c3ccc(-c4scnc4C)cc3)C(C)(C)C)c2)C[C@H]1C(=O)N[C@@H]1CCCc2ccccc21)C1CCCCC1` [PROTAC 9, (2S,4S)-1-((S)-2-Cyclohexyl-2-((S)-2-(methylamino)propanamido)acetyl)-4-(3-((5-(((S)-1-((2S,4R)-4-hydroxy-2-(((S)-1-(4-(4-methylthiazol-5-yl)phenyl)ethyl)carbamoyl)pyrrolidin-1-yl)-3,3-dimethyl-1-oxobutan-2-yl)amino)-5-oxopentyl)oxy)phenoxy)-N-((R)-1,2,3,4-tetrahydronaphthalen-1-yl)pyrrolidine-2-carboxamide]: in assay [1] (0.1 μM, time course), the “time to complete degradation of cIAP1, cIAP2 and XIAP” value was at most 3 h. Further, the “IAP degradation profile (in words)” value in assay [1] is “induces cIAP1, cIAP2, XIAP, and VHL30 degradation in a dose-dependent manner”. Moreover, in assay [1] (single exposure to 1 μM for 16 h, then compound removal), the “persistence of IAP degradation after washout (in words)” value is “nearly full and stable pan-degradation of IAPs up to 72 h”. In addition, the IC50 with HEL (HEL, AML cell line, 96 h, TNFα-challenged, read-out: IC50 cell viability HEL) amounted to 1.17 µM. Besides, the IC50 in the assay with K562 (K562, AML cell line, 96 h, TNFα-challenged, read-out: IC50 cell viability K562) came out at 0.42 µM. Moreover, the IC50 in the assay on MOLM13 (AML cell line, 96 h, TNFα-challenged, read-out: IC50 cell viability MOLM13) came out at 0.0021 µM. Further, the IC50 in the assay with DB (DB, DLBCL cell line, 96 h, TNFα-challenged, read-out: IC50 cell viability DB) is 0.46 µM. Besides, in the assay with DB (setting [2]), the IC50 turned out to be 0.51 µM. Also, in the assay with MM.1S cells proteome (listed as Gue3582), the “Precursor intensity (DIA-NN), CLPX precursor AAAAADLANR2” value was 27158.9 and 21797.6; the “Precursor intensity (DIA-NN), RPL4 precursor AAAAAAALQAK1” value is 83.0044 and 593.705; the “Precursor intensity (DIA-NN), RPL4 precursor AAAAAAALQAK2” value was 450548 and 462008; the “Precursor intensity (DIA-NN), SAMD1 precursor AAAAAATAPPSPGPAQPGPR2” value is 15172 and 13054.7. Moreover, the “Precursor intensity (DIA-NN), ZFP91 precursor AAAAAAAAAVSR2” value with MM.1S cells proteome (listed as Gue3582) is 70631.3 and 75175.8. For the same compound, in the assay on MM.1S cells proteome (setting [3]), the “logFC EIF1AX” value amounted to 0.2289, the “logFC SIGMAR1” value is recorded as 0.1571, the “logFC TAF15” value was 0.09552 and the “logFC TOP1” value was found to be 0.1861. The remaining activity at 0.1 µM at cIAP2 (MM1.S, 16 h) came out at 21%. At cIAP2 (MM1.S, read-out: Dmax cIAP2 (maximum degradation), MM.1S cells, 16 h), the Dmax was 90%. At cIAP2 (MM.1S cells, 16 h, at 0.1 μM), the “Dmax cIAP2 (maximum degradation)” value is given as above 90%. Further, on cIAP2 (read-out: DC50,16h cIAP2, MM.1S cells, 16 h, densitometric quantification of western blots, n = 4), the DC50 was determined as 0.0062 µM.
On to `CN[C@@H](C)C(=O)N[C@H](C(=O)N1C[C@@H](Oc2cccc(OCCCCCCOCCCCCCOCCCCCCNc3cccc4c3C(=O)N(C3CCC(=O)NC3=O)C4=O)c2)C[C@H]1C(=O)N[C@@H]1CCCc2ccccc21)C1CCCCC1` (stereo partly drawn) [PROTAC 27, (2S,4S)-1-((S)-2-Cyclohexyl-2-((S)-2-(methylamino)propanamido)acetyl)-4-(3-((6-((6-((6-((2-(2,6-dioxopiperidin-3-yl)-1,3-dioxoisoindolin-4-yl)amino)hexyl)oxy)hexyl)oxy)hexyl)oxy)phenoxy)-N-((R)-1,2,3,4-tetrahydronaphthalen-1-yl)pyrrolidine-2-carboxamide], for which, in assay [1], the “IAP degradation profile (in words)” value is “isoform-selective XIAP degradation”. In the assay with MM.1S cells proteome (setting [3]), the “logFC COX6C” value is recorded as -0.5143, the “logFC EIF4B” value is -0.1592, the “logFC HNRNPA2B1” value was -0.1781 and the “logFC POTEJ” value is reported as -0.3899. The “logFC TPM3” value in the assay on MM.1S cells proteome (setting [3]) is on record as -0.214. The remaining activity at 0.1 µM at cIAP2 (MM1.S, 16 h) amounted to 46%.

As usually defined, the Dmax is the greatest extent of degradation seen.
